Assays:
[1] = target: T1, human sodium glucose cotransporter 2 (Homo sapiens, UniProt P31639); test: SGLT-2 assay: sodium-dependent 14C-AMG uptake in CHO-hSGLT2 or HEK-hSGLT2 cells; type: cell-based; conditions: n = 1-4, hSGLT2-transfected CHO-K1 or HEK293 cells, read-out: SGLT2 IC50 nM (n = 1-4)
T1 construct: expressed in transfected cells; host or cells: CHO-K1 (ATCC CCL-61) or HEK293 (ATCC CRL-1573), stably transfected with pZeoSV
T1 sequence (P31639 1-672): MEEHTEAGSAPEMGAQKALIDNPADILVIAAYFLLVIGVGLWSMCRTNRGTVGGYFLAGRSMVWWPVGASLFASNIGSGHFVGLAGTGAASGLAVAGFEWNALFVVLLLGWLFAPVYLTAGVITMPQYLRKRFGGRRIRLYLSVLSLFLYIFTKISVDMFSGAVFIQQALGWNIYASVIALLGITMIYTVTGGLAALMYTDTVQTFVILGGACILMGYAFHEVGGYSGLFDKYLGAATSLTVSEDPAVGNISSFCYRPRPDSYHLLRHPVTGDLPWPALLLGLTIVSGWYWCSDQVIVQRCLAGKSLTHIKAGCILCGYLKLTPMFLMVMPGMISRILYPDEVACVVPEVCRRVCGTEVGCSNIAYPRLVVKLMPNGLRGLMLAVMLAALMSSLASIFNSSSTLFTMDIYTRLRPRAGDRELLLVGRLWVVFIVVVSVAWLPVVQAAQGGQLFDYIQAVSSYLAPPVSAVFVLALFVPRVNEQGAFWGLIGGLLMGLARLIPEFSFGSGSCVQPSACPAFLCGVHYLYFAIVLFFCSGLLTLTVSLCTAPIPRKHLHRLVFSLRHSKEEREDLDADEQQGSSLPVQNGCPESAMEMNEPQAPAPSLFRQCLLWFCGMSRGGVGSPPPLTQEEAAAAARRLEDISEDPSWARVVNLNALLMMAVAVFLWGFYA
Experimental: These cell lines transport 14 C-labeled alpha-methyl-glucopyranoside (14 C-AMG, Amersham) into the interior of the cell in sodium-dependent manner.
(§1) The SGLT-2 assay is carried out as follows: CHO-hSGLT2 cells are cultivated in Ham's F12 Medium (BioWhittaker) with 10% fetal calf serum and 250 μg/mL zeocin (Invitrogen), and HEK293-hSGLT2 cells are cultivated in DMEM medium with 10% fetal calf serum and 250 μg/mL zeocin (Invitrogen). The cells are detached from the culture flasks by washing twice with PBS and subsequently treating with trypsin/EDTA. After the addition of cell culture medium the cells are centrifuged, resuspended in culture medium and counted in a Casy cell counter. Then 40,000 cells per well are seeded into a white, 96-well plate coated with poly-D-lysine and incubated overnight at 37° C., 5% CO2. The cells are washed twice with 250 μl of assay buffer (Hanks Balanced Salt Solution, 137 mM NaCl, 5.4 mM KCl, 2.8 mM CaCl2, 1.2 mM MgSO4 and 10 mM HEPES (pH 7.4), 50 μg/mL of gentamycin). 250 μl of assay buffer and 5 μl of test compound are then added to each well and the plate is incubated for a further 15 minutes in the incubator. 5 μl of 10% DMSO are used as the negative control. The reaction is started by adding 5 μl of 14 C-AMG (0.05 μCi) to each well. After 2 hours' incubation at 37° C., 5% CO2, the cells are washed again with 250 μl of PBS ([…]) and then lysed by the addition of 25 μl of 0.1 N NaOH (5 min. at 37° C.). 200 μl of MicroScint20 (Packard) are added to each well and incubation is continued for a further 20 min at 37° C. After this incubation the radioactivity of the 14 C-AMG absorbed is measured in a Topcount (Packard) using a 14 C scintillation program.

[2] = target: T2, human SGLT1 (Homo sapiens, UniProt P13866); test: Analogous SGLT1 selectivity test: hSGLT1 expressed in CHO-K1 or HEK293 cells; type: cell-based; conditions: n = 1-4; 14C-AMG uptake, hSGLT1-transfected CHO-K1 or HEK293 cells
T2 construct: expressed in transfected cells; host or cells: CHO-K1 or HEK293
T2 sequence (P13866 1-664): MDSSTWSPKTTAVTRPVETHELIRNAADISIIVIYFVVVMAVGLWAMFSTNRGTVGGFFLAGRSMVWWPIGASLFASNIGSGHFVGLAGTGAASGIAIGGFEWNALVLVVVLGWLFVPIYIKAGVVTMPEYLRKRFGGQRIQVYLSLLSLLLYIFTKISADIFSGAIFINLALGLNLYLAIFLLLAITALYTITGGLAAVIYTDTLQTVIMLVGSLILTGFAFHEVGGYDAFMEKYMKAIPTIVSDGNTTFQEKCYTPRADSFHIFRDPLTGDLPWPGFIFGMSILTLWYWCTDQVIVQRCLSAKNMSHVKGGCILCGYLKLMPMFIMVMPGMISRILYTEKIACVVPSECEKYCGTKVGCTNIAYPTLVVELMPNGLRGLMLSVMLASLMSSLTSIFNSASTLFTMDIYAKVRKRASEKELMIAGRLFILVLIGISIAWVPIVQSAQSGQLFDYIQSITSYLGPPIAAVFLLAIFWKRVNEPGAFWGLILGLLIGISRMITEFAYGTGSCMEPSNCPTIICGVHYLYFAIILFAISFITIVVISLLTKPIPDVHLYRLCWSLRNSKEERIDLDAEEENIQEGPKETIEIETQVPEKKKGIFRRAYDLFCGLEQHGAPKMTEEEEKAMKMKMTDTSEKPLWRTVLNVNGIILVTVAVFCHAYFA
Experimental: as §1
To determine the selectivity with respect to human SGLT1 an analogous test is set up in which the cDNA for hSGLTI (Genbank Ace. No. NM000343) instead of hSGLT2 cDNA is expressed in CHO-K1 or HEK293 cells.

Row | IC50 [1] | IC50 [2] | SMILES
1 | 1 nM | 300 nM | CCOc1ccc(Cc2cc([C@@H]3OC4(CC4)[C@@H](O)[C@H](O)[C@H]3O)ccc2Cl)cc1 [Example 2, (5S,6R,7R,8S)-5-[4-Chloro-3-(4-ethoxy-benzyl)-phenyl]-4-oxa-spiro[2.5]octane-6,7,8-triol]
2 | 0.9 nM | 153 nM | CCOc1ccc(Cc2cc([C@@H]3OC4(CC4)[C@@H](O)[C@H](O)[C@H]3O)ccc2C)cc1 [Example 3, (5S,6R,7R,8S)-5-[3-(4-Ethoxy-benzyl)-4-methyl-phenyl]-4-oxa-spiro[2.5]octane-6,7,8-triol]
3 | 2.6 nM | 460 nM | Oc1ccc(Cc2cc([C@@H]3OC4(CC4)[C@@H](O)[C@H](O)[C@H]3O)ccc2Cl)cc1 [Example 6, (5S,6R,7R,8S)-5-[4-Chloro-3-(4-hydroxy-benzyl)-phenyl]-4-oxa-spiro[2.5]octane-6,7,8-triol]
4 | 23 nM | > 30000 nM | CCOc1ccc(Cc2cc([C@@H]3OC(CO)(CO)[C@@H](O)[C@H](O)[C@H]3O)ccc2Cl)cc1 [Example 10, (3S,4R,5R,6S)-6-[4-Chloro-3-(4-ethoxy-benzyl)-phenyl]-2,2-bis-hydroxymethyl-tetrahydro-pyran-3,4,5-triol]

Source: US8394772B2, “Glycoside derivative and uses thereof” (Novartis AG, priority 2009, dated 2013)
